Results published in BindingDB's records for doi:10.7270/Q21Z42V4 (Burnham Center For Chemical Genomics, 2010).

Biological target: Intestinal-type alkaline phosphatase (Mus musculus, UniProt P24822)
Assay: PubChem AID 488875

Intestinal-type alkaline phosphatase, sequence (P24822 whole entry, looked up): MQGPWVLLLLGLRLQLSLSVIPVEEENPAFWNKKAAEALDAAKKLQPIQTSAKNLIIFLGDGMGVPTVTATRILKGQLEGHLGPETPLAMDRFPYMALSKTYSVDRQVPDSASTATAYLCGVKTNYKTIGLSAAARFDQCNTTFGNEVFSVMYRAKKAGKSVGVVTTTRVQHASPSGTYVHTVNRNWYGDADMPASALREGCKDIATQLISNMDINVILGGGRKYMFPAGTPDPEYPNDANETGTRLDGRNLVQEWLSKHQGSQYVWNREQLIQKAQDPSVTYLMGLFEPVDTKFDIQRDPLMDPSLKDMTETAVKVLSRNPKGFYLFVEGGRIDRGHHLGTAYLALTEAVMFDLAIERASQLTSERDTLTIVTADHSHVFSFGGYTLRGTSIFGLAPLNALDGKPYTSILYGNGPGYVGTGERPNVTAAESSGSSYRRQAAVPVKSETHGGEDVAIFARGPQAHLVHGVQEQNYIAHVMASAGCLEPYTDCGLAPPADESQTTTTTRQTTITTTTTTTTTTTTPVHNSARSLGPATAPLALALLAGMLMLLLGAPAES

Row | EC50 [µM] | Structure (SMILES)
1 | > 100 | C=c1[nH]n(-c2nc3ccccc3[nH]2)c(=O)c1=CN(C)C [(4E)-2-(1H-benzimidazol-2-yl)-4-(dimethylaminomethylidene)-5-methyl-pyrazol-3-one]
2 | > 100 | CCc1ccc(CN=Nc2ncnc3nc[nH]c23)cc1 [MLS000419199]
3 | > 100 | Cn1c(C(C#N)C(=O)c2ccc(Br)s2)nc2ccccc21 (centres undefined) [MLS001167394]
4 | > 100 | COc1cccc(C=NNC(=O)c2[nH][nH]c(=O)c2C)c1O [N'-[(E)-(5-methoxy-6-oxidanylidene-cyclohexa-2,4-dien-1-ylidene)methyl]-4-methyl-5-oxidanylidene-1,4-dihydropyrazole-3-carbohydrazide]
